Laboratory results taken from PubChem BioAssay AID330 (DTP/NCI, 2004).
“And” between values parts separate entries of the source, which are not always exact repeats. Identical values can stand only once. Toxic doses and inconclusive results are not listed. Rule for the calls: active = survival T/C of 150% or more; inactive = T/C below 125% in these data. Peptide text beside a SMILES is read from it.

Tested on: P388 leukemia ip, CD2F1 mice, survival T/C
Experiment: NCI In Vivo Anticancer Drug Screen. Data for tumor model P388 Leukemia (intraperitoneal) in CD2F1 (CDF1) mice
Conditions: endpoint: median survival time, higher = longer survival
Method in brief: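 Mice carrying the transplanted tumor received test compound or vehicle. Survival was recorded in each group, and the value is the treated-group measurement divided by that of the vehicle-treated control group.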

[1] = dose: 60.0 mg/kg/injection, schedule: Q01DX005 (ip), vehicle: saline with Tween-80
[2] = dose: 120.0 mg/kg/injection, schedule: Q01DX005 (ip), vehicle: saline with Tween-80
[3] = dose: 240.0 mg/kg/injection, schedule: Q01DX005 (ip), vehicle: saline with Tween-80
[4] = dose: 60.0 mg/kg/injection, schedule: Q01DX005 (ip), vehicle: Klucel (hydroxypropylcellulose) (HPC)
[5] = dose: 120.0 mg/kg/injection, schedule: Q01DX005 (ip), vehicle: Klucel (hydroxypropylcellulose) (HPC)
[6] = dose: 100.0 mg/kg/injection, schedule: Q04DX003 (ip), vehicle: saline
[7] = dose: 200.0 mg/kg/injection, schedule: Q04DX003 (ip), vehicle: saline
[8] = dose: 50.0 mg/kg/injection, schedule: Q01DX005 (ip), vehicle: Klucel (hydroxypropylcellulose) (HPC)
[9] = dose: 100.0 mg/kg/injection, schedule: Q01DX005 (ip), vehicle: Klucel (hydroxypropylcellulose) (HPC)
[10] = dose: 200.0 mg/kg/injection, schedule: Q01DX005 (ip), vehicle: Klucel (hydroxypropylcellulose) (HPC)
[11] = dose: 50.0 mg/kg/injection, schedule: Q01DX009 (ip), vehicle: saline
[12] = dose: 100.0 mg/kg/injection, schedule: Q01DX009 (ip), vehicle: saline
[13] = dose: 200.0 mg/kg/injection, schedule: Q01DX009 (ip), vehicle: saline
[14] = dose: 50.0 mg/kg/injection, schedule: Q04DX003 (ip), vehicle: saline with Tween-80
[15] = dose: 100.0 mg/kg/injection, schedule: Q04DX003 (ip), vehicle: saline with Tween-80
[16] = dose: 200.0 mg/kg/injection, schedule: Q04DX003 (ip), vehicle: saline with Tween-80
[17] = dose: 400.0 mg/kg/injection, schedule: Q04DX003 (ip), vehicle: saline
[18] = dose: 50.0 mg/kg/injection, schedule: Q01DX009 (ip), vehicle: saline with Tween-80
[19] = dose: 100.0 mg/kg/injection, schedule: Q01DX009 (ip), vehicle: saline with Tween-80
[20] = dose: 200.0 mg/kg/injection, schedule: Q01DX009 (ip), vehicle: saline with Tween-80

Measured: T/C

CNC(=O)NNC(=O)c1ccccc1Cl
inactive: [1] 106 % of control | [2] 101 % of control | [3] 103 % of control

COc1ccc(/C=N/N2CN(C(C)C(=O)O)B(NCCC(C)C)N=C2N)cc1OC (stereo not given)
inactive: dose: 60.0 mg/kg/injection, schedule: Q01DX005 (ip), vehicle: saline 104 % of control | dose: 120.0 mg/kg/injection, schedule: Q01DX005 (ip), vehicle: saline 105 % of control

Clc1ccc(Nc2c3ccccc3nc3c2cnn3-c2ccccc2)cc1
inactive: [4] 89 % of control | [5] 99 % of control and 93 % of control | dose: 240.0 mg/kg/injection, schedule: Q01DX005 (ip), vehicle: Klucel (hydroxypropylcellulose) (HPC) 100 % of control and 90 % of control

C=C1C(O)C2(O)OCC34C(CC5C(C)=CC(=O)C(O)C5(C)C23)OC(=O)C(OC(=O)C(C)(O)CC)C14 (stereo not given)
inactive: dose: 0.25 mg/kg/injection, schedule: Q01DX009 (ip), vehicle: saline + alcohol 106 % of control and 112 % of control | dose: 0.5 mg/kg/injection, schedule: Q01DX009 (ip), vehicle: saline + alcohol 118 % of control

Oc1c(Cl)cc(C(c2cc(Cl)c(O)c(Cl)c2)C(c2cc(Cl)c(O)c(Cl)c2)c2cc(Cl)c(O)c(Cl)c2)cc1Cl
inactive: dose: 100.0 mg/kg/injection, schedule: Q04DX003 (ip), vehicle: Klucel (hydroxypropylcellulose) (HPC) 115 % of control

Fc1cccc(N=Nc2c(-c3ccccc3)nn(C(=S)S)c2-c2ccccc2)c1
inactive: dose: 50.0 mg/kg/injection, schedule: Q01DX005 (ip), vehicle: saline with Tween-80 104 % of control | dose: 100.0 mg/kg/injection, schedule: Q01DX005 (ip), vehicle: saline with Tween-80 101 % of control | dose: 200.0 mg/kg/injection, schedule: Q01DX005 (ip), vehicle: saline with Tween-80 106 % of control

CN1CCCC(Cl)(C(=O)c2ccccc2)C1 (stereo not given)
inactive: [6] 106 % of control | [7] 100 % of control

NC(Cc1ccccc1)C(=O)NC(CC(=O)O)C(=O)O (stereo not drawn) (H-Phe-Asp-OH; configuration not given here)
inactive: [8] 99 % of control | [9] 99 % of control | [10] 109 % of control

N#CC1=C(C#N)CC2C(C1)OC1CC(C#N)=C(C#N)CC12 (stereo not given)
inactive: [11] 100 % of control | [12] 101 % of control | [13] 100 % of control

CC(=O)OCC1OC(n2ccc(=S)[nH]c2=O)C(OC(C)=O)C1OC(C)=O (stereo not given)
inactive: [14] 93 % of control | [15] 100 % of control | [16] 92 % of control | dose: 400.0 mg/kg/injection, schedule: Q04DX003 (ip), vehicle: saline with Tween-80 102 % of control

COc1cccc(C2c3cc4c(cc3OC(N3CCCC3)C2C)OCO4)c1O (stereo not given)
inactive: [1] 103 % of control | [2] 90 % of control | [3] 88 % of control

CCOC(=O)c1[nH]c(=O)c2ccccc2c1O
inactive: dose: 12.5 mg/kg/injection, schedule: Q01DX009 (ip), vehicle: suspension in saline 91 % of control | dose: 25.0 mg/kg/injection, schedule: Q01DX009 (ip), vehicle: suspension in saline 92 % of control | dose: 50.0 mg/kg/injection, schedule: Q01DX009 (ip), vehicle: suspension in saline 99 % of control | dose: 100.0 mg/kg/injection, schedule: Q01DX009 (ip), vehicle: suspension in saline 98 % of control

CSc1ccc2c(=O)c(C(=O)O)c[nH]c2c1
inactive: [6] 108 % of control | [7] 99 % of control | [17] 107 % of control

CSc1nc2c(Br)cnn2c(=O)[nH]1
inactive: dose: 100.0 mg/kg/injection, schedule: Q01DX001 (ip), vehicle: saline with Tween-80 94 % of control | dose: 200.0 mg/kg/injection, schedule: Q01DX001 (ip), vehicle: saline with Tween-80 101 % of control | dose: 400.0 mg/kg/injection, schedule: Q01DX001 (ip), vehicle: saline with Tween-80 100 % of control

C[N+](C)(C)CCCCC[N+](C)(C)C
inactive: dose: 6.25 mg/kg/injection, schedule: Q01DX009 (ip), vehicle: saline 110 % of control | dose: 12.5 mg/kg/injection, schedule: Q01DX009 (ip), vehicle: saline 110 % of control | dose: 25.0 mg/kg/injection, schedule: Q01DX009 (ip), vehicle: saline with Tween-80 100 % of control | dose: 25.0 mg/kg/injection, schedule: Q01DX009 (ip), vehicle: saline 110 % of control | [18] 104 % of control | [19] 100 % of control

CCCCCCC[n+]1ccccc1C#N
inactive: dose: 12.5 mg/kg/injection, schedule: Q04DX003 (ip), vehicle: saline with Tween-80 103 % of control and 107 % of control | dose: 25.0 mg/kg/injection, schedule: Q04DX003 (ip), vehicle: saline with Tween-80 100 % of control and 103 % of control | [14] 103 % of control | [15] 100 % of control and 118 % of control | [16] 99 % of control

CCOC(=O)c1nnc(-c2ccccc2)nc1Cl
inactive: [4] 103 % of control | [5] 100 % of control

CC/C(=N\NC(=S)SC)c1ccccc1
inactive: [18] 91 % of control | [19] 100 % of control | [20] 97 % of control

CSN(C)C(=O)Nc1cc(Cl)ccc1Cl
inactive: [6] 107 % of control | [7] 92 % of control | [17] 92 % of control

CNC(=S)N=Nc1c(O)[nH]c2ccccc12
inactive: [11] 91 % of control | [12] 99 % of control | [13] 91 % of control

O=C1C(=O)N(c2ccccc2Cl)C(=O)N1Cc1ccccc1
inactive: dose: 50.0 mg/kg/injection, schedule: Q01DX009 (ip), vehicle: Klucel (hydroxypropylcellulose) (HPC) 95 % of control | dose: 100.0 mg/kg/injection, schedule: Q01DX009 (ip), vehicle: Klucel (hydroxypropylcellulose) (HPC) 98 % of control | dose: 200.0 mg/kg/injection, schedule: Q01DX009 (ip), vehicle: Klucel (hydroxypropylcellulose) (HPC) 91 % of control

Oc1ccccc1C=NCCCN=Cc1ccccc1O
inactive: dose: 18.75 mg/kg/injection, schedule: Q01DX009 (ip), vehicle: saline with Tween-80 103 % of control | dose: 37.5 mg/kg/injection, schedule: Q01DX009 (ip), vehicle: saline with Tween-80 110 % of control | [18] 109 % of control | dose: 75.0 mg/kg/injection, schedule: Q01DX009 (ip), vehicle: saline with Tween-80 111 % of control | [20] 121 % of control | dose: 400.0 mg/kg/injection, schedule: Q01DX009 (ip), vehicle: saline with Tween-80 119 % of control

CC(C)(C)c1ccnc(N=C2N=C(Nc3cc(C(C)(C)C)ccn3)c3ccccc32)c1
inactive: [18] 89 % of control | [19] 89 % of control

C=CCOC1C=C(C)C(=O)O1 (stereo not given)
inactive: dose: 41.5 mg/kg/injection, schedule: Q01DX005 (ip), vehicle: saline with Tween-80 100 % of control | dose: 83.0 mg/kg/injection, schedule: Q01DX005 (ip), vehicle: saline with Tween-80 103 % of control | dose: 166.0 mg/kg/injection, schedule: Q01DX005 (ip), vehicle: saline with Tween-80 109 % of control

NC(N)=N/N=C/c1ccc(-c2cc3ccc(/C=N/N=C(N)N)cc3s2)cc1
inactive: dose: 12.5 mg/kg/injection, schedule: Q01DX005 (ip), vehicle: Klucel (hydroxypropylcellulose) (HPC) 114 % of control | dose: 25.0 mg/kg/injection, schedule: Q01DX005 (ip), vehicle: Klucel (hydroxypropylcellulose) (HPC) 116 % of control | [8] 121 % of control | [9] 118 % of control | [10] 107 % of control
